Here are results for five compounds from patent US20100041722A1, “ORGANIC COMPOUNDS” (priority 2006, published 2010).

For orientation: IC50 means the concentration that inhibits the measured activity by half.

Experiment [1] has as its target T1, aldosterone synthase (CYP11B2) (Homo sapiens, UniProt P19099).
T1 construct: host or cells: NCI-H295R human adrenocortical carcinoma cells
T1 sequence (P19099 25-503): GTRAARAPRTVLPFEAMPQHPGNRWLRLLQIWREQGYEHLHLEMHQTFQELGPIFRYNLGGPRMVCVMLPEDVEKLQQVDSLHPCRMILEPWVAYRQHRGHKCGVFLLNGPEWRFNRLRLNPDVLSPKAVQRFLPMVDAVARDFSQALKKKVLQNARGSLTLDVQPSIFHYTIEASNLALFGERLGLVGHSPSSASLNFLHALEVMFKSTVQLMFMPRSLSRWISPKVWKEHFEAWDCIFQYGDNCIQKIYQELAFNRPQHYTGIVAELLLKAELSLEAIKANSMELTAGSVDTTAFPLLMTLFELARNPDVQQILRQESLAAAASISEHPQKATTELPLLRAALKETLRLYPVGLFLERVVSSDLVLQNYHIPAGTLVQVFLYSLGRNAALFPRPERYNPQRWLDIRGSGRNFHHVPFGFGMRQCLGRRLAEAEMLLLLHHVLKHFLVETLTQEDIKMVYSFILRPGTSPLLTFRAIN
The experiment can be described thus: in vitro aldosterone synthase inhibition: aldosterone production in Ang II-stimulated NCI-H295R cells. The format is cell-based. As to conditions: Table 1, read-out: AS IC50. The source says:
Human adrenocortical carcinoma NCl-H295R cell line is obtained from American Type Culture Collection (Manassas, Va.). Insulin/transferrin/selenium (ITS)-A supplement (100×), DMEM/F-12, antibiotic/antimycotic (100×), and fetal calf serum (FCS) are purchased from Gibco (Grand Island, N.Y.). Anti-mouse PVT scintillation proximity assay (SPA) beads and NBS 96-well plates are obtained from Amersham (Piscataway, N.J.) and Corning (Acton, Mass.), respectively. Solid black 96-well flat bottom plates are purchased from Costar (Corning, N.Y.). Aldosterone and angiotensin (Ang II) are purchased from Sigma (St. Louis, Mo.). D-[1,2,6,7-^3H(N)]aldosterone was acquired from PerkinElmer (Boston, Mass.). Nu-serum was a product of BD Biosciences (Franklin Lakes, N.J.). The NADPH regenerating system, dibenzylfluorescein (DBF), and human aromatase supersomes® are obtained from Gentest (Woburn, Mass.).
For in vitro measurement of aldosterone activity, human adrenocortical carcinoma NCl-H295R cells are seeded in NBS 96-well plates at a density of 25,000 cells/well in 100 μl of a growth medium containing DMEM/F12 supplemented with 10% FCS, 2.5% Nu-serum, 1 μg ITS/ml, and 1× antibiotic/antimycotic. The medium is changed after culturing for 3 days at 37° C. under an atmosphere of 5% CO2/95% air. On the following day, cells are rinsed with 100 μl of DMEM/F12 and incubated with 100 μl of treatment medium containing 1 μM Ang II and a compound at different concentrations in quadruplicate wells at 37° C. for 24 hr. At the end of incubation, 50 μl of medium is withdrawn from each well for measurement of aldosterone production by an RIA using mouse anti-aldosterone monoclonal antibodies.
Measurement of aldosterone activity can also be performed using a 96-well plate format. Each test sample is incubated with 0.02 μCi of D-[1,2,6,7-^3H(N)]aldosterone and 0.3 μg of anti-aldosterone antibody in phosphate-buffered saline (PBS) containing 0.1% Triton X-100, 0.1% bovine serum albumin; and 12% glycerol in a total volume of 200 μl at room temperature for 1 hr. Anti-mouse PVT SPA beads (50 μl) are then added to each well and incubated overnight at room temperature prior to counting in a Microbeta plate counter. The amount of aldosterone in each sample is calculated by comparing with a standard curve generated using known quantities of the hormone.
Full concentration-response curves of the test compound are performed at least 3 times. The IC50 values are derived using a non-linear least squares curve-fitting program from Microsoft XLfit.

Experiment [2] concerns the target T2, CYP11B1 (steroid 11β-hydroxylase) (Homo sapiens, UniProt P15538).
T2 construct: Thus, the NCl-H295R cells have CYP11B1 (steroid 11 p-hydroxylase); host or cells: NCI-H295R human adrenocortical carcinoma cells
T2 sequence (P15538 25-503): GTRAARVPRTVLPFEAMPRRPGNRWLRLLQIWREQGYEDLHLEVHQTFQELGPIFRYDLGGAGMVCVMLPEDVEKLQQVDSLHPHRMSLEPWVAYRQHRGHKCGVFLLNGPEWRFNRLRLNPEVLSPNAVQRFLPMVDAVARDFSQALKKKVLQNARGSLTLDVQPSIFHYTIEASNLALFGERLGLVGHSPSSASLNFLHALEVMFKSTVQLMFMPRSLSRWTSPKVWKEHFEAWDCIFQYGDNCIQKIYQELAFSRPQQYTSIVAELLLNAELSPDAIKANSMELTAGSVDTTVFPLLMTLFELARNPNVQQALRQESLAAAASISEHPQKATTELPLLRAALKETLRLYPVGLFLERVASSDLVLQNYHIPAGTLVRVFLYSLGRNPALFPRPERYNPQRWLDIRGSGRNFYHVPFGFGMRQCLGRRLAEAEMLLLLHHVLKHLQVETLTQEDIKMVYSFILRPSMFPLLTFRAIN
Nature of the experiment: in vitro CYP11B1 inhibition: steroid release from NCI-H295R cells. Format: cell-based. As to conditions: Table 1. The source says: The in vitro inhibitory activities for CYP11B1 can be determined by the following assay.
The cell line NCl-H295R was originally isolated from an adrenocortical carcinoma and has been characterized in the literature through the stimulable secretion of steroid hormones and the presence of the enymes essential for steroidogenesis. Thus, the NCl-H295R cells have CYP11B1 (steroid 11 p-hydroxylase). The cells show the physiological property of zonally undifferentiated human foetal adrenocortical cells which, however, have the capacity to produce the steroid hormones which are formed in the three, phenotypically distinguishable zones in the adult adrenal cortex. […]
The excretion of aldosterone, cortisol, corticosterone and estradiol/estrone into the culture medium can be detected and quantified by commercially available, specific monoclonal antibodies in radioimmunoassays in accordance with the manufacturer's instructions.
Inhibition of the release of certain steroids can be used as a measure of the respective enzyme inhibition by the added test compounds. The dose-dependent inhibition of enzymic activity by a compound is calculated by means of an inhibition plot which is characterized by an IC50.
The IC50 values for active test compounds are ascertained by a simple linear regression analysis in order to construct inhibition plots without data weighting. The inhibition plot is calculated by fting a 4-parameter logistic function to the raw data points using the least squares method. The equation of the 4-parameter logistic function is calculated as follows: Y=(d−a)/((1+(x/c)b))+a I where: a=minimum data level b=gradient I c=ICED d=maximum data level x=inhibitor concentration.

For `COC(=O)c1cn(C2Cc3ccccc3C2)cn1` [LDG688, 1-Indan-2-yl-1H-imidazole-4-carboxylic acid methyl ester], the IC50 in experiment [1] was determined as 9 nM; in experiment [2] it was 107 nM. On the same counts, the results for `COC(=O)c1cncn1C1CCc2ccccc2C1` (centres unmarked) [LDI154, 3-(1,2,3,4-Tetrahydro-naphthalen-2-yl)-3H-imidazole-4-carboxylic acid methyl ester] are 6 nM and 42 nM. On the same counts, the results for `Cc1noc(-c2cncn2C2Cc3ccccc3C2)n1` [LDK260, 5-(3-Indan-2-yl-3H-imidazol-4-yl)-3-methyl-[1,2,4]oxadiazole] are 95 nM and 725 nM. Take `ON=Cc1cncn1C1Cc2ccccc2C1` [LDK909, 3-Indan-2-yl-3H-imidazole-4-carbaldehyde oxime]: the IC50 in experiment [1] stood at 378 nM. As to `COC(=O)c1cncn1C1COc2ccccc2OC1` [LDS237, 3-(3,4-Dihydro-2H-benzo[b][1,4]dioxepin-3-yl)-3H-imidazole-4-carboxylic acid methyl ester], the IC50 in experiment [1] worked out at 214 nM.
